We go through 2 compounds from patent publication US20120149708A1, “MODULATORS OF VIRAL TRANSCRIPTION, AND METHODS AND COMPOSITIONS THEREWITH” (George Mason University, priority 2010, published 2012).

Common to all, as to assay type: cell-based
Assay [1] has as its system Jurkat T-cells (uninfected). As to the kind of experiment: Cell viability by trypan blue exclusion, 48 hours. Here is the method:
(§1) TZM-bl cell lines were grown in Dulbecco's modified Eagle's medium supplemented with fetal bovine serum (FBS) (10%, v/v), 2 mM L-glutamine, and antibiotics (penicillin 100 U/ml, streptomycin […]) (cDMEM). HCT116 WT and HCT116 Dicer−/−cell lines were grown in McCoy's medium supplemented with FBS (10%, v/v), 2mM L-glutamine, and antibiotics (penicillin 100 U/ml, streptomycin […]). CEM, ACH2, Jurkat and U937 cells were grown in RPMI 1640 supplemented with FBS, L-glutamine, and antibiotics (penicillin 100 U/ml, streptomycin […]). All cell lines were maintained at 37° C. in 5% (v/v) CO2. […]
(§2) In brief, the inhibition studies were carried out as follows. HIV-1 infected cells ACH2, J1.1, OM10.1, U1 and uninfected CEM, Jurkat T-cells, and U937 were cultured in media. The appropriate inhibitor was added at a concentration of 10 μM. Cells were treated for 48 hours and cell viability was determined using trypan blue exclusion method. Results of such a screen for 19 inhibitors is shown in Table 1 where percent dead cells are indicated each drug tested.
(§3) Again HIV-1 infected and uninfected cells were treated with eighteen Formula I compounds at a drug concentration of 50 nm. Forty-eight hours after treatment, cytotoxicity was determined by trypan blue dye exclusion. Percent inhibition was calculated after obtaining the cell density for each well of the tissue culture plate at the end of 48 hrs.

Assay [2] deals with ACH2 cells (HIV-1 infected). As to the kind of experiment: Cell viability by trypan blue exclusion, 48 hours. The following applies: HIV-1 infected. As for the experimental part: as §1, §2, §3
In assay [3] the test system is HIV-1 (pNL4.3) in promonocytic U937 cells. The experiment in a line: Reverse transcriptase assay of supernatants, pNL4.3 electroporated cells. The following applies: Flavopiridol 200 nm, CR8 100 nm, CR8#13 50 nm, 48 hours. As for the experimental part:
(§4) Jurkat T-cell and promonocytic U937 cells were electroporated with 5 μg pNL4.3 followed the next day by drug treatment of Flavopiridol (200 nm), CR8 (100 nm) or CR8#13 (50 nm). Cell supernatants were collected at 48 hours post drug treatment. Viral supernatants (10 μl) were incubated in a 96-well plate with reverse transcriptase (RT) reaction mixture overnight at 37° C., and 10 μl of the reaction mix was spotted on a DEAE Filtermat paper, washed with 5% (w/v) Na2HPO4 followed by water wash, and then dried completely. RT activity was measured in a Betaplate counter.
(§5) For electroporations, Jurkat and U937 cells were resuspended at 3 million cells in 250 μl of RPMI. Five microgram of pNL4-3 was then added to the cell suspension. Cells were pulsed a single time at 210V, 800 μF, and low resistance. Electroporated cells were immediately transferred to RPMI-1640 with L-glutamine and Penicillin/Streptomycin with 10% (v/v) FBS and plated in 6 well plates. Twenty four hours-post electroporation, cells were treated with drugs for additional 48 hrs and harvested for RT analysis. RT assays were performed as described in ((Guendel et al. 2009; Easley et al. 2010).
(§6) The present inventors examined whether Formula I, or Formula II compounds were effective inhibiting viral transcription in cell lines infected with an HIV-1 construct. Thus, Jurkat T-cells and promonocytic U937 cells were transfected with pNL4.3 and then treated with Flavopiridol, CR8 and CR8#13. Similar to monocytes, the Dicer levels are low to undetectable in promonocytic cells (FIG. 6) and was detectable only when these cells had differentiated into macrophages with PMA treatment.
(§7) Following drug treatment cell supernatants were collected and processed for exogenous reverse transcriptase (RT) levels.

Assay [4] has as its system HIV-1 (pNL4.3) in Jurkat T-cells. Described as above. To be noted: Flavopiridol 200 nm, CR8 100 nm, CR8#13 50 nm, 48 hours. As for the experimental part:
as §4, §5, §6, §7

In assay [5] the test system is CEM cells (uninfected). As to the kind of experiment: Cell viability by trypan blue exclusion, 48 hours. Here is the method: (§8) TZM-bl cell lines were grown in Dulbecco's modified Eagle's medium supplemented with fetal bovine serum (FBS) (10%, v/v), 2 mM L-glutamine, and antibiotics (penicillin 100 U/ml, streptomycin […]) (cDMEM). HCT116 WT and HCT116 Dicer−/−cell lines were grown in McCoy's medium supplemented with FBS (10%, v/v), 2mM L-glutamine, and antibiotics (penicillin 100 U/ml, streptomycin […]). CEM, ACH2, Jurkat and U937 cells were grown in RPMI 1640 supplemented with FBS, L-glutamine, and antibiotics (penicillin 100 U/ml, streptomycin […]). All cell lines were maintained at 37° C. in 5% (v/v) CO2.
(§9) ACH2 cells are infected with HIV-1; TZM-bl cells contain a stably-integrated HIV-1 LTR-Luciferase reporter; CEM, Jurkat, and U937 cells are uninfected. Transfections were carried out using Attractene (Qiagen) lipid reagent. Cells were cultured to confluence and pelleted at 4° C. for 15 min at 3,000 rpm. The cell pellets were washed twice with 25 ml of phosphate-buffered saline (PBS) with Ca2+ and Mg2+ (Quality Biological) and centrifuged once more. Cell pellets were resuspended in lysis buffer (50 mM Tris-HCl, pH 7.5, 120 mM NaCl, 5 mM EDTA, 0.5%, v/v, NP-40, 50 mM NaF, 0.2 mM Na3VO4, 1 mM DTT, one complete protease cocktail tablet/50 ml (Roche) and incubated on ice for 20 min, with gentle vortexing every 5 min. Cell lysates were transferred to eppendorf tubes and were centrifuged at 10,000 rpm for 10 min. Supernatants were transferred to a fresh tube where protein concentrations were determined using Bio-Rad protein assay (Bio-Rad, Hercules, Calif.).
as §2, §3

Assay [6] has as its system U937 cells (uninfected). The experiment in a line: Cell viability by trypan blue exclusion, 48 hours. Here is the method:
as §8, §9, §2, §3

SMILES strings stand for the structures.

As usually defined, the inhibition is how much of the control response was suppressed. Regarding `CC[C@@H](CO)Nc1nc(NCc2ccc(-c3ccccn3)cc2)c2ncn(C(C)C)c2n1` [CR8], the inhibition at 10 µM is 50% in assay [1] (Homo sapiens, Jurkat, 10 μM, 48 hours, read-out: % Inhibition (percent dead cells) Jurkat); 90% in assay [2] (Human immunodeficiency virus 1, ACH-2, 48 h, 10 μM, 48 hours, read-out: % Inhibition (percent dead cells) ACH2); 25% in assay [5] (Homo sapiens, CCRF-CEM, 48 h, 10 μM, 48 hours, read-out: % Inhibition (percent dead cells) CEM); 50% in assay [6] (Homo sapiens, U-937, 10 μM, 48 hours, read-out: % Inhibition (percent dead cells) U937). Besides, the “RT levels in supernatant” value in assay [3] is on record as “not U937 monocytic cells”; in assay [4], “effective at decreasing RT levels”.
On to `CC(C)c1cnn2c(NCc3ccc(-c4ccccn4)cc3)nc(NC[C@H](O)CO)nc12.O=C(O)/C=C/C(=O)O` [BJFP1154], for which the “Inhibition Percentage Jurkat” value in assay [1] (50 nM, 48 hrs) is “− (1-5%)”. Besides, the “Inhibition Percentage ACH2” value in assay [2] (50 nM, 48 hrs) is recorded as “− (1-5%)”. Also, the entries for the “RT levels in supernatant” value in assay [3] and in assay [4] were “not U937 monocytic cells” and “effective at decreasing RT levels”, respectively. In addition, the “Inhibition Percentage CEM” value in assay [5] (50 nM, 48 hrs) is given as “− (1-5%)”. In addition, the “Inhibition Percentage U937” value in assay [6] (50 nM, 48 hrs) was “− (1-5%)”.
